The test system of data set [1] is polarized human airway epithelial cells. As to conditions: hypotonic EGTA solution alone; cited from earlier work.
Another data set relates to HeLa cells. As to the kind of experiment: AAV2 FLAG-Luc transduction of HeLa cells (luciferase screen). In kind it is cell-based, human. From the text: A. To screen for agents that enhance rAAV transduction, any number of cells can be used. A range of concentrations of the agent to be tested can be determined based on, for instance desirable profiles of the agent, desirable toxicity profiles of the agent and/or concentration of the agents employed in vivo. The usefulness of the cell type chosen for the screen can be confirmed by testing compounds, e.g., proteasome inhibitors such as LLnL and ZLL which are known to increase rAAV transduction. For example, a AAV2 FLAG-Luc vector was employed to transduce HeLa, ferret fibroblasts, IB3 and Huh (liver) cells in the presence or absence of the proteasome inhibitor MG132. MG132 was confirmed to enhance AAV transduction in all cell types tested: HeLa cell transduction was enhanced about 500-fold at 80 μM, and 200-fold at 40 μM, MG132; ferret fibroblast cell transduction was enhanced about 200-fold at 20 μM, and 17-fold at 4 μM, MG132; IB3-1 cell transduction was enhanced about 30 to 70-fold at 20 to 80 μM MG132; and Huh-7 cell transduction was enhanced about 15-fold at 20 to 80 μM MG132. There was no difference in rAAV transduction efficiency in HeLa cells when either DMSO or ETOH was used as a vehicle for MG132. B. HeLa cells were selected to screen for additional agents that enhance rAAV transduction, although any cell strain or line; or primary cells, may be employed. […] The range of concentrations of the agents to be tested were selected based on solubility profiles, toxicity profiles and/or concentrations previously employed in vivo.
HeLa cells were infected for 2 hours with an MOI of 100 rAAV in the presence of agents, e.g., ritonavir (Norvir) (1, 10 and 100 μM), cyclosporin A (2.5, 25 and 250 μg/ml), epoxomicin (1, 10 and 50 μM), alcacinomycin A (5, 50 or 500 μM), chymostatin (1, 10 and 100 μM), bestatin (1, 10 and 100 μM), doxorubicin (adriamycin) (0.1, 1 and 10 μM), camptothecin (camptosar) (1, 10 and 100 μM), eicosapentanoic acid (1, 10 and 100 μM), tannic acid (2, 20, 200 and 2000 μM), simvastatin, prodrug (2, 20 and 200 μM), cisplatin (0.2, 2 and 20 μg/mL), and chloroquine (4, 40 and 400 μM). Forty-eight hours after infection, cells were harvested for analysis. rAAV transduction was measured by removing the media from the cell cultures, adding 100 μL reporter lysis buffer (RLB) and freezing. The supernatant was thawed and transferred to microfuge tubes, freeze thawed an additional 2 times, clarified by centrifugation for 10 minutes and then analyzed for reporter gene expression on the lumometer. Protein was determined by Bradford analysis and results were expressed as relative light units per mg protein (RLU/mg).
Based on results with doxorubicin, a small number of FDA approved anthracyclines were tested for their relative in vitro and in vivo activities on AAV transduction. HeLa cells were infected with 100 ppc AAV2FLAG-Luc for 2 hours in the presence of different anthracyclines, e.g., doxorubicin, daunarubicin (Cerubidine), epirubicin (Ellence™), and idarubicin (Idamycin®), and cells harvested 48 hours later. The anthracyclines were pharmaceutical grade, and prepared according to the manufacturer's instructions. Prior to use, the agents were diluted in sterile water to an equal mass, e.g., 0.6 μg/mL, 3 μg/mL and 6 μg/mL. For example, 3 μg/mL idamycin increased luciferase expression by over 5000-fold while doxorubin increased luciferase expression by 58-fold. Generally, the potency was as follows: idarubicin>daunarubicin>epirubicin>doxorubicin.

A further data set deals with mouse lung. Nature of the data set: Intranasal AAV2-Luc with anthracyclines in Balb/c mice (lung luciferase). Type of data set: in vivo. As to conditions: 10% HDE intranasal, day 7. From the text:
(§1) Animals were followed for seven days post dose.
The dose of modulator was based on the Human Dose Equivalent (HDE) and is summarized below in Table 4. For intranasal dose administration, the dose was held constant at 10% of the HDE.
On the day of sacrifice, the left lung was clamped off at the level of the extrapulmonary bronchi, removed and frozen on dry ice. The left lung was homogenized and processed for luciferase expression using Promega's luciferase assay system (Madison, Wis.). Luminescence was measured using the Berthold AutoLumat LB953 instrument. Samples were normalized for total protein using Pierce's Coomassie Plus Protein Assay Reagent (Rockford, Ill.).

In another data set the test system is Balb/c mice. As to the kind of experiment: Safety of anthracyclines in Balb/c mice. In kind it is in vivo, mouse. To be noted: intranasal, 10% HDE.
Description: as §1
Safety endpoints included morbidity and mortality, clinical observations, body weights, gross necropsy observations and histopathology. Transduction endpoints included luciferase and GFP analysis.

The text below walks through data of patent US20080206198A1, “Compounds and methods for pharmico-gene therapy of epithelial sodium channel associated disorders” (priority 2003, published 2008).

Consider `O=C(O)CN(CCOCCOCCN(CC(=O)O)CC(=O)O)CC(=O)O` [EGTA], for which, in data set [1], the “increase of AAV transduction from the apical surface” value was 7 to 10 fold.

On to `CC(=O)[C@]1(O)Cc2c(O)c3c(c(O)c2[C@@H](O[C@H]2C[C@H](N)[C@H](O)[C@H](C)O2)C1)C(=O)c1ccccc1C3=O` [Idamycin, idarubicin], for which the “increase in luciferase expression” value in the data set with HeLa cells (3 μg/mL, 100 ppc AAV2FLAG-Luc, harvest 48 hours) is listed as “over 5000 fold”. Also, the “order of potency among anthracyclines” value in the data set on HeLa cells (0.6, 3 and 6 μg/mL) was “idarubicin>daunarubicin>epirubicin>doxorubicin”. Moreover, the figures for the “Fold Increase in luciferase expression” value in the data set on mouse lung (both sexes), with mouse lung (female) and in the data set with mouse lung (male) were 90, 57 and 111, respectively. For the same compound, the “luciferase expression, Average” value in the data set on mouse lung (both sexes) was found to be 5.06E+05; in the data set on mouse lung (female), 2.02E+05; in the data set with mouse lung (male), 8.11E+05. Moreover, in the data set on Balb/c mice (7 days), the “mortality and clinical observations” value was “early mortality of some animals, ruffled hair coats and sick mice”. Moreover, in the data set with Balb/c mice (over the week), the body weight entry was “lost considerable body weight”.
